Measurements as given in the supplement of paper PMC10307832.

Legend:
Assay in all cases: relative viability (nuclei count vs DMSO), 5 days (fraction); higher = more cells survive
Imatinib + Palbociclib = compound: Cc1ccc(NC(=O)c2ccc(CN3CCN(C)CC3)cc2)cc1Nc1nccc(-c2cccnc2)n1 [Imatinib] + CC(=O)c1c(C)c2cnc(Nc3ccc(N4CCNCC4)cn3)nc2n(C2CCCC2)c1=O [Palbociclib] (partner 0.5 µM)
Summary of the method: (§1)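 Cells from lung cancer lines were seeded into 1536-well plates and, one day later, dosed by pin tool. Treatments were either a single drug or a fixed dose of an anchor drug with five library-drug doses (not always all listed) in √10 steps. After 5 days, nuclei were stained in a one-step fixation (final 0.05% Triton X-100, 1% formaldehyde, 1 ug/ml Hoechst) and counted on 4× images, and relative viability is the treated-to-vehicle nuclei ratio, as the median of duplicate plates.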

Imatinib + Navitoclax = compound: Cc1ccc(NC(=O)c2ccc(CN3CCN(C)CC3)cc2)cc1Nc1nccc(-c2cccnc2)n1 [Imatinib] + CC1(C)CCC(c2ccc(Cl)cc2)=C(CN2CCN(c3ccc(C(=O)NS(=O)(=O)c4ccc(N[C@H](CCN5CCOCC5)CSc5ccccc5)c(S(=O)(=O)C(F)(F)F)c4)cc3)CC2)C1 [Navitoclax] (partner 0.5 µM)
Summary of the method: as §1

Imatinib + Tozasertib = compound: Cc1ccc(NC(=O)c2ccc(CN3CCN(C)CC3)cc2)cc1Nc1nccc(-c2cccnc2)n1 [Imatinib] + Cc1cc(Nc2cc(N3CCN(C)CC3)nc(Sc3ccc(NC(=O)C4CC4)cc3)n2)n[nH]1 [Tozasertib] (partner 0.1 µM)
Summary of the method: as §1

Imatinib + Vorinostat = compound: Cc1ccc(NC(=O)c2ccc(CN3CCN(C)CC3)cc2)cc1Nc1nccc(-c2cccnc2)n1 [Imatinib] + O=C(CCCCCCC(=O)Nc1ccccc1)NO [Vorinostat] (partner 1 µM)
Summary of the method: as §1

Cell Line | relative viability (Imatinib + Palbociclib; first compound 0.02 µM) | relative viability (Imatinib + Palbociclib; first compound 0.06325 µM) | relative viability (Imatinib + Palbociclib; first compound 0.2 µM) | relative viability (Imatinib + Palbociclib; first compound 0.6325 µM) | relative viability (Imatinib + Palbociclib; first compound 2 µM) | relative viability (Imatinib + Navitoclax; first compound 0.02 µM) | relative viability (Imatinib + Navitoclax; first compound 0.06325 µM) | relative viability (Imatinib + Navitoclax; first compound 0.2 µM) | relative viability (Imatinib + Navitoclax; first compound 0.6325 µM) | relative viability (Imatinib + Navitoclax; first compound 2 µM) | relative viability (Imatinib + Tozasertib; first compound 0.02 µM) | relative viability (Imatinib + Tozasertib; first compound 0.2 µM) | relative viability (Imatinib + Tozasertib; first compound 0.6325 µM) | relative viability (Imatinib + Tozasertib; first compound 2 µM) | relative viability (Imatinib + Vorinostat; first compound 0.02 µM) | relative viability (Imatinib + Vorinostat; first compound 0.06325 µM) | relative viability (Imatinib + Vorinostat; first compound 0.2 µM) | relative viability (Imatinib + Vorinostat; first compound 0.6325 µM) | relative viability (Imatinib + Vorinostat; first compound 2 µM)
NCI-H2228 | 1.06 | 0.73 | 0.664 | 0.916 | 0.697 | 0.982 | 0.891 | 1.11 | 0.922 | 0.955 | 0.196 | 0.205 | 0.186 | 0.203 | 0.677 | 0.692 | 0.724 | 0.602 | 1
CAL-12T | 0.374 | 0.412 | 0.535 | 0.496 | 0.444 | 1.44 | 1.32 | 1.21 | 1.38 | 0.974 | 0.369 | 0.311 | 0.293 | 0.225 | 0.854 | 0.69 | 0.828 | 0.78 | 0.711
